Data reported in PubChem BioAssay (NCI).
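GI50 marks 50% less growth. TGI denotes the concentration required for complete inhibition of growth.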

Key:
Experiment in all cases: inhibition of tumour cell growth, NCI panel, 384-well format
OVCAR-5 ovarian = system: OVCAR-5 ovarian
HL-60(TB) leukemia = system: HL-60(TB) leukemia
NCI-H23 lung = system: NCI-H23 lung
SW-620 colon = system: SW-620 colon
HCT-15 colon = system: HCT-15 colon
SNB-75 CNS = system: SNB-75 CNS
OVCAR-4 ovarian = system: OVCAR-4 ovarian
MDA-MB-231 breast = system: MDA-MB-231 breast
NCI-H322M lung = system: NCI-H322M lung
TK-10 renal = system: TK-10 renal
A498 renal = system: A498 renal
U251 glioblastoma = system: U251 glioblastoma
HOP-62 NSCLC = system: HOP-62 NSCLC
OVCAR-3 ovarian = system: OVCAR-3 ovarian
SF-539 CNS = system: SF-539 CNS
SNB-19 CNS = system: SNB-19 CNS
ACHN renal = system: ACHN renal
UACC-257 melanoma = system: UACC-257 melanoma
UO-31 renal = system: UO-31 renal
NCI-H460 NSCLC = system: NCI-H460 NSCLC
SF-268 CNS = system: SF-268 CNS
MOLT-4 leukemia = system: MOLT-4 leukemia
NCI-H522 lung = system: NCI-H522 lung
MCF7 breast = system: MCF7 breast
MALME-3M melanoma = system: MALME-3M melanoma
HT29 colon = system: HT29 colon
SK-OV-3 ovarian = system: SK-OV-3 ovarian
BT-549 breast = system: BT-549 breast
COLO 205 colon = system: COLO 205 colon
EKVX NSCLC = system: EKVX NSCLC
SR leukemia = system: SR leukemia
UACC-62 melanoma = system: UACC-62 melanoma
K-562 leukemia = system: K-562 leukemia
HCT-116 colon = system: HCT-116 colon
PC-3 prostate = system: PC-3 prostate
SF-295 CNS = system: SF-295 CNS
A549 NSCLC = system: A549 NSCLC
SK-MEL-28 melanoma = system: SK-MEL-28 melanoma
OVCAR-8 ovarian = system: OVCAR-8 ovarian
MDA-MB-435 melanoma = system: MDA-MB-435 melanoma
T-47D breast = system: T-47D breast
KM12 colon = system: KM12 colon
MDA-MB-468 breast = system: MDA-MB-468 breast
DU-145 prostate = system: DU-145 prostate
SN12C renal = system: SN12C renal
HS 578T breast = system: HS 578T breast
SK-MEL-5 melanoma = system: SK-MEL-5 melanoma
786-0 renal = system: 786-0 renal
IGROV1 ovarian = system: IGROV1 ovarian
NCI-H226 lung = system: NCI-H226 lung
RXF 393 renal = system: RXF 393 renal
SK-MEL-2 melanoma = system: SK-MEL-2 melanoma
HOP-92 NSCLC = system: HOP-92 NSCLC
M14 melanoma = system: M14 melanoma
CAKI-1 renal = system: CAKI-1 renal

CCc1cc2c(c(OCC(F)(F)F)c(C(=O)NC3CCN(C(=O)CO)CC3)n2C)c(=O)n1CC(=O)c1ccccc1 gave a GI50 (OVCAR-5 ovarian) greater than 100 µM, a TGI (OVCAR-5 ovarian) greater than 100 µM and a GI50 (HL-60(TB) leukemia) of 25.3 µM. For the same molecule, the TGI (HL-60(TB) leukemia) was 40.7 µM, the GI50 (NCI-H23 lung) was 79.9 µM and the TGI (NCI-H23 lung) was greater than 100 µM. It also gave a GI50 (SW-620 colon) of 57 µM, a TGI (SW-620 colon) greater than 100 µM and a GI50 (HCT-15 colon) of 61.9 µM. It also gave a TGI (HCT-15 colon) greater than 100 µM, a GI50 (SNB-75 CNS) of 54.9 µM and a TGI (SNB-75 CNS) greater than 100 µM. It also gave a GI50 (OVCAR-4 ovarian) of 37.1 µM, a TGI (OVCAR-4 ovarian) greater than 100 µM and a GI50 (MDA-MB-231 breast) of 37.7 µM. It also gave a TGI (MDA-MB-231 breast) greater than 100 µM, a GI50 (NCI-H322M lung) of 72.6 µM and a TGI (NCI-H322M lung) greater than 100 µM. It also gave a GI50 (TK-10 renal) of 33.9 µM, a TGI (TK-10 renal) greater than 100 µM and a GI50 (A498 renal) of 33.6 µM. The TGI (A498 renal) was greater than 100 µM, the GI50 (U251 glioblastoma) was 52.6 µM and the TGI (U251 glioblastoma) was greater than 100 µM. For the same molecule, the GI50 (HOP-62 NSCLC) was 28.2 µM, the TGI (HOP-62 NSCLC) was greater than 100 µM and the GI50 (OVCAR-3 ovarian) was 40 µM. For the same molecule, the TGI (OVCAR-3 ovarian) was greater than 100 µM, the GI50 (SF-539 CNS) was 37.8 µM and the TGI (SF-539 CNS) was greater than 100 µM. For the same molecule, the GI50 (SNB-19 CNS) was greater than 100 µM, the TGI (SNB-19 CNS) was greater than 100 µM and the GI50 (ACHN renal) was 31.6 µM. For the same molecule, the TGI (ACHN renal) was greater than 100 µM, the GI50 (UACC-257 melanoma) was 68.8 µM and the TGI (UACC-257 melanoma) was greater than 100 µM. It also gave a GI50 (UO-31 renal) of 19.7 µM, a TGI (UO-31 renal) of 51.6 µM and a GI50 (NCI-H460 NSCLC) of 27.5 µM. The TGI (NCI-H460 NSCLC) was greater than 100 µM, the GI50 (SF-268 CNS) was 68.8 µM and the TGI (SF-268 CNS) was greater than 100 µM. It also gave a GI50 (MOLT-4 leukemia) of 18.3 µM, a TGI (MOLT-4 leukemia) of 34.6 µM and a GI50 (NCI-H522 lung) of 69.8 µM. It also gave a TGI (NCI-H522 lung) greater than 100 µM, a GI50 (MCF7 breast) of 9.23 µM and a TGI (MCF7 breast) greater than 100 µM. The GI50 (MALME-3M melanoma) was 73.9 µM, the TGI (MALME-3M melanoma) was greater than 100 µM and the GI50 (HT29 colon) was 41.7 µM. It also gave a TGI (HT29 colon) greater than 100 µM, a GI50 (SK-OV-3 ovarian) of 45.8 µM and a TGI (SK-OV-3 ovarian) greater than 100 µM. The GI50 (BT-549 breast) was 57.9 µM, the TGI (BT-549 breast) was greater than 100 µM and the GI50 (COLO 205 colon) was greater than 100 µM. The TGI (COLO 205 colon) was greater than 100 µM, the GI50 (EKVX NSCLC) was 40.3 µM and the TGI (EKVX NSCLC) was greater than 100 µM. For the same molecule, the GI50 (SR leukemia) was 17.3 µM, the TGI (SR leukemia) was 31.4 µM and the GI50 (UACC-62 melanoma) was 32.6 µM. The TGI (UACC-62 melanoma) was greater than 100 µM, the GI50 (K-562 leukemia) was 33.6 µM and the TGI (K-562 leukemia) was greater than 100 µM. It also gave a GI50 (HCT-116 colon) of 35.6 µM, a TGI (HCT-116 colon) greater than 100 µM and a GI50 (PC-3 prostate) of 42.1 µM. For the same molecule, the TGI (PC-3 prostate) was greater than 100 µM, the GI50 (SF-295 CNS) was 24.9 µM and the TGI (SF-295 CNS) was 98.7 µM. It also gave a GI50 (A549 NSCLC) of 46.8 µM, a TGI (A549 NSCLC) greater than 100 µM and a GI50 (SK-MEL-28 melanoma) of 38.9 µM. For the same molecule, the TGI (SK-MEL-28 melanoma) was greater than 100 µM, the GI50 (OVCAR-8 ovarian) was 54.2 µM and the TGI (OVCAR-8 ovarian) was greater than 100 µM. The GI50 (MDA-MB-435 melanoma) was greater than 100 µM, the TGI (MDA-MB-435 melanoma) was greater than 100 µM and the GI50 (T-47D breast) was 29.9 µM. The TGI (T-47D breast) was greater than 100 µM, the GI50 (KM12 colon) was 42.4 µM and the TGI (KM12 colon) was greater than 100 µM. It also gave a GI50 (MDA-MB-468 breast) of 20.6 µM, a TGI (MDA-MB-468 breast) of 79.2 µM and a GI50 (DU-145 prostate) of 82.5 µM. It also gave a TGI (DU-145 prostate) greater than 100 µM, a GI50 (SN12C renal) greater than 100 µM and a TGI (SN12C renal) greater than 100 µM. The GI50 (HS 578T breast) was 37.7 µM, the TGI (HS 578T breast) was greater than 100 µM and the GI50 (SK-MEL-5 melanoma) was 23.2 µM. For the same molecule, the TGI (SK-MEL-5 melanoma) was greater than 100 µM, the GI50 ([…]-0 renal) was 18.4 µM and the TGI (786-0 renal) was 36.6 µM. For the same molecule, the GI50 (IGROV1 ovarian) was 58.2 µM, the TGI (IGROV1 ovarian) was greater than 100 µM and the GI50 (NCI-H226 lung) was 22.4 µM. For the same molecule, the TGI (NCI-H226 lung) was greater than 100 µM, the GI50 (RXF 393 renal) was 1.91 µM and the TGI (RXF 393 renal) was 12.4 µM. The GI50 (SK-MEL-2 melanoma) was 30.1 µM, the TGI (SK-MEL-2 melanoma) was greater than 100 µM and the GI50 (HOP-92 NSCLC) was 58.6 µM. The TGI (HOP-92 NSCLC) was greater than 100 µM, the GI50 (M14 melanoma) was greater than 100 µM and the TGI (M14 melanoma) was greater than 100 µM. It also gave a GI50 (CAKI-1 renal) of 39.6 µM and a TGI (CAKI-1 renal) greater than 100 µM.
